The subject of data set [1] is Vero. In words: Cytotoxic activity against African green monkey Vero cells up to 250 ug/ml. In kind it is cell-based. As to conditions: chlorocebus sabaeus; call rule not given here.
For data set [2], the system named is Vero. Briefly: Growth inhibition of African green monkey Vero cells up to 250 ug/ml. Format: cell-based. As to conditions: chlorocebus sabaeus.
In a further data set the target is T1, Thymidylate kinase (Mycobacterium tuberculosis, UniProt P9WKE1).
T1 sequence (P9WKE1 whole entry): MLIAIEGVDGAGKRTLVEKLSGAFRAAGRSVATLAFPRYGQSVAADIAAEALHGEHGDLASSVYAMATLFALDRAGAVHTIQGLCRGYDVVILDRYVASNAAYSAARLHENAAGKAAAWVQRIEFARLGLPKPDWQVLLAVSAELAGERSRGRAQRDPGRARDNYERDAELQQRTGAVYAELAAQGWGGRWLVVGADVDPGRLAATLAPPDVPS
Briefly: Inhibition of Mycobacterium tuberculosis TMPK using dTMP substrate and NADH by pyruvate kinase/lactate dehydrogenase coupling system based spectrophotometric assay.

As to `Cc1cn(Cc2ccc(CCCCCC(=O)O)cc2)c(=O)[nH]c1=O`, the Activity entry in the data set on Vero [1] and in the data set with Vero [2] was “Non-toxic” in each case.
Take `COC(=O)CCCC#Cc1ccc(Cn2cc(C)c(=O)[nH]c2=O)cc1`: the Ki entry on Thymidylate kinase is recorded as “Not Active”.

Source of the values: ChEMBL document CHEMBL3714722, “Aryl, Pyrimidyl Compounds, Pharmaceutical Compositions Comprising them, Their Use as Antimicrobial Agents” (2008).
